Positions of bridges follow the written chain, without caps; N, C: chain ends. Non-standard residues stand in square brackets, D forms with d. Residues, ends and D or L forms follow the SMILES beside them. *: point of attachment. DOTA = O=C(O)CN1CCN(CC(=O)O)CCN(CC(=O)*)CCN(CC(=O)O)CC1; dPhe(4-NHCONH2) = NC(=O)Nc1ccc(C[C@@H](N)C(=O)O)cc1; Butanoyl(4-(4-I-phenyl)) = O=C(CCCc1ccc(I)cc1)*; Dihydroorotyl(S) = O=C1C[C@@H](C(=O)*)NC(=O)N1; Phe(4-Cl) = N[C@@H](Cc1ccc(Cl)cc1)C(=O)O; Phe(4-NH2) = Nc1ccc(C[C@H](N)C(=O)O)cc1
What was measured:
Stability in mouse serum = assay type: in vitro ADME; settings: % intact radiolabeled ligand, ~3 MBq in 150 μL mouse serum, 37 °C, ACN protein precipitation, radio-HPLC, n = 1
Description: (§1) The ^177Lu-labeled compounds (~3 MBq) were incubated in PBS (300 μL) at 37 °C. The stability of the radiolabeled peptides was verified by radio-HPLC at 1, 4, and 24 h. The stability in serum was determined by incubating the radiolabeled compounds (~3 MBq) into 150 μL of mouse serum (Merck; Haarlerbergweg, The Netherlands) at 37 °C. At 1, 4, and 24 h post-incubation, the proteins were precipitated by adding an aliquot of 35 μL of the mixture to an equal volume of ACN. The vial was vortexed and centrifuged for 20 min. stability was monitored by radio-HPLC (Figures S4 and S5).

Ex vivo biodistribution = settings: mouse, iv, 0.5 nmol, total radioactivity
Stability in PBS = assay type: physicochemical; settings: % intact radiolabeled ligand, ~3 MBq in PBS (300 μL), 37 °C, radio-HPLC, n = 1
Description: as §1

In vivo SPECT/CT imaging = settings: mouse, H69 xenograft tumor, iv, 20 MBq/0.5 nmol per animal, total radioactivity
[1] = system: mice bearing SSTR2-positive H69 xenografts; experiment: In vivo SPECT/CT imaging; settings: H69 xenograft mice, i.v. 20 MBq/0.5 nmol, n = 4
[2] = Determination of lipophilicity (LogD7.4, shake-flask); assay type: physicochemical; settings: n-octanol/PBS (1:1), pH 7.4, PBS/n-octanol 1:1 (1 mL), ~1.5 MBq, gamma counter, n = 3 (triplicate), mean ± SEM, read-out: Log D7.4
Description: The distribution coefficient (LogD7.4) of the ^177Lu-labeled peptides was determined by the shake-flask method. For each radioligand, the experiment was performed in triplicate. The radiolabeled compound (~1.5 MBq) was added to a solution of phosphate buffered saline (PBS)/n-octanol (1 mL, v:v = 1:1) in eppendorf vials. The vials were vortexed vigorously and centrifuged at 10,000 rpm for 3 min. The n-octanol phase was separated from the aqueous phase, poured into new vials, and centrifuged for 15 min. Samples from each phase (10 μL) were measured using a gamma counter. The LogD7.4 value was calculated using the following equation: […].

human albumin = human albumin (Homo sapiens, UniProt P02768); experiment: Albumin binding properties (ultrafiltration); settings: ~1 MBq in human albumin/PBS (500 µL, v:v = 1:4), 1 h, 37 °C; Centrifree ultrafiltration 30 KDa; gamma counter; n = 3, mean ± SEM
human albumin, sequence (P02768 25-609): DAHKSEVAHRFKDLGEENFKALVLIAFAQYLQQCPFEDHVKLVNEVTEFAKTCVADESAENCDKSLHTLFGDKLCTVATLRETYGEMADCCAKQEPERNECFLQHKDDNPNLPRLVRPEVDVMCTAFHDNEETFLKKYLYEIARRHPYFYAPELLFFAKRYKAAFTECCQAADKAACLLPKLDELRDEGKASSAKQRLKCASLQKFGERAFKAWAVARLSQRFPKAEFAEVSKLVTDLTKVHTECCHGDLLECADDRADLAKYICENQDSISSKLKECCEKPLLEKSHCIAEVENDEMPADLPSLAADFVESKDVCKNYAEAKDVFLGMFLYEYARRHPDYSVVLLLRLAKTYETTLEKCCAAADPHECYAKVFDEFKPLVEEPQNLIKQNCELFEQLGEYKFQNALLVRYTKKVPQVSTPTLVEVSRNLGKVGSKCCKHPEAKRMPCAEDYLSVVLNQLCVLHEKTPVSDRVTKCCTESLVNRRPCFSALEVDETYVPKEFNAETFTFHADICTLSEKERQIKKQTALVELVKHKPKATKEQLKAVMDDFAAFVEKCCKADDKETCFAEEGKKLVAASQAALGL

## C[C@@H](O)[C@@H]1NC(=O)[C@H](CCCCN)NC(=O)[C@@H](Cc2ccc(NC(N)=O)cc2)NC(=O)[C@H](Cc2ccc(NC(=O)[C@@H]3CC(=O)NC(=O)N3)cc2)NC(=O)[C@H](NC(=O)[C@H](Cc2ccc(Cl)cc2)NC(=O)[C@H](CCCCNC(=O)CCCc2ccc(I)cc2)NC(=O)CN2CCN(CC(=O)O)CCN(CC(=O)O)CCN(CC(=O)O)CC2)CSSC[C@@H](C(=O)N[C@H](Cc2ccc(O)cc2)C(N)=O)NC1=O [[^177Lu]Lu-8a, metal not drawn] ({DOTA}-K(Butanoyl(4-(4-I-phenyl)))[Phe(4-Cl)][dC][Phe(4-NH2)](Dihydroorotyl(S))[dPhe(4-NHCONH2)]KTC[dY]-NH2; disulfide 3-8)
Stability in mouse serum; 1 h
  remaining at 1 h: 97.3%
Stability in mouse serum; 4 h
  remaining at 4 h: 98.4%
Stability in mouse serum; 24 h
  remaining at 24 h: 98.5%
Ex vivo biodistribution; blood
  tissue uptake at 4 h: 21.3 ± 1.1 %ID/g
  tissue uptake at 24 h: 18.1 ± 4.2 %ID/g
  tissue uptake at 48 h: 12.9 ± 1.2 %ID/g
  tissue uptake at 72 h: 8.6 ± 0.5 %ID/g
Ex vivo biodistribution; bone marrow
  tissue uptake at 4 h: 1.2 ± 2 %ID/g
Ex vivo biodistribution; bone
  tissue uptake at 4 h: 1.3 ± 1.8 %ID/g
  tissue uptake at 24 h: 1.5 ± 1.1 %ID/g
  tissue uptake at 48 h: 0.9 ± 0.4 %ID/g
  tissue uptake at 72 h: 1.2 ± 1 %ID/g
Ex vivo biodistribution; heart
  tissue uptake at 4 h: 7.6 ± 1.2 %ID/g
  tissue uptake at 24 h: 5.1 ± 0.7 %ID/g
  tissue uptake at 48 h: 4.8 ± 0.5 %ID/g
  tissue uptake at 72 h: 3.9 ± 0.7 %ID/g
Ex vivo biodistribution; intestine
  tissue uptake at 4 h: 2.5 ± 0.2 %ID/g
  tissue uptake at 24 h: 1.7 ± 0.1 %ID/g
  tissue uptake at 48 h: 1.4 ± 0.1 %ID/g
  tissue uptake at 72 h: 1.1 %ID/g
Ex vivo biodistribution; kidney
  tissue uptake at 4 h: 9.6 ± 1.2 %ID/g
  tissue uptake at 24 h: 18.4 ± 1.9 %ID/g
  tissue uptake at 48 h: 22.6 ± 1.9 %ID/g
  tissue uptake at 72 h: 21.6 ± 1.4 %ID/g
Ex vivo biodistribution; liver
  tissue uptake at 4 h: 4.6 ± 1.2 %ID/g
  tissue uptake at 24 h: 3.7 ± 0.2 %ID/g
  tissue uptake at 48 h: 3.6 ± 0.2 %ID/g
  tissue uptake at 72 h: 2.9 ± 0.3 %ID/g
Ex vivo biodistribution; lung
  tissue uptake at 4 h: 9.9 ± 2.9 %ID/g
  tissue uptake at 24 h: 7.5 ± 0.6 %ID/g
  tissue uptake at 48 h: 7.2 ± 0.3 %ID/g
  tissue uptake at 72 h: 6 ± 0.5 %ID/g
Ex vivo biodistribution; muscle
  tissue uptake at 4 h: 0.8 ± 1.1 %ID/g
  tissue uptake at 24 h: 1.1 ± 0.1 %ID/g
  tissue uptake at 48 h: 1.2 ± 0.5 %ID/g
  tissue uptake at 72 h: 0.8 ± 0.1 %ID/g
Ex vivo biodistribution; pancreas
  tissue uptake at 4 h: 7.2 ± 0.3 %ID/g
  tissue uptake at 24 h: 6.6 ± 0.3 %ID/g
  tissue uptake at 48 h: 6.3 ± 0.7 %ID/g
  tissue uptake at 72 h: 5.3 ± 1.2 %ID/g
Ex vivo biodistribution; skin
  tissue uptake at 4 h: 5.9 ± 1.1 %ID/g
  tissue uptake at 24 h: 5.4 ± 0.9 %ID/g
  tissue uptake at 48 h: 6.3 ± 1.6 %ID/g
  tissue uptake at 72 h: 4.8 ± 0.3 %ID/g
Ex vivo biodistribution; spleen
  tissue uptake at 4 h: 3.2 ± 0.7 %ID/g
  tissue uptake at 24 h: 3.8 ± 0.4 %ID/g
  tissue uptake at 48 h: 5.8 ± 0.6 %ID/g
  tissue uptake at 72 h: 5.4 ± 0.2 %ID/g
Ex vivo biodistribution; stomach
  tissue uptake at 4 h: 3.8 ± 0.4 %ID/g
  tissue uptake at 24 h: 3.1 ± 1.4 %ID/g
  tissue uptake at 48 h: 3.3 ± 1.2 %ID/g
  tissue uptake at 72 h: 3 ± 0.5 %ID/g
Ex vivo biodistribution; tumor
  tissue uptake at 4 h: 4.1 ± 0.5 %ID/g
  tissue uptake at 24 h: 6.5 ± 0.2 %ID/g
  tissue uptake at 48 h: 7.3 ± 0.4 %ID/g
  tissue uptake at 72 h: 7.3 ± 0.9 %ID/g
Stability in PBS; 1 h
  Stability in PBS (%) 1 h: 96.5%
Stability in PBS; 4 h
  Stability in PBS (%) 4 h: 96.5%
Stability in PBS; 24 h
  Stability in PBS (%) 24 h: 97.2%
In vivo SPECT/CT imaging
  tissue uptake per volume at 4 h: 3.7 ± 0.9 %ID/mL
  tissue uptake per volume at 24 h: 4.9 ± 0.5 %ID/mL
  tissue uptake per volume at 48 h: 5.7 ± 0.6 %ID/mL
  tissue uptake per volume at 72 h: 4.9 ± 0.3 %ID/mL
[1]; 4 h post-injection
  SPECT quantification, kidneys (K), 4 h: 7.7 ± 0.9 % ID/mL
[1]; 24 h post-injection
  SPECT quantification, kidneys (K), 24 h: 10.1 ± 0.8 % ID/mL
[1]; 48 h post-injection
  SPECT quantification, kidneys (K), 48 h: 10.1 ± 0.3 % ID/mL
[1]; 72 h post-injection
  SPECT quantification, kidneys (K), 72 h: 8.9 ± 0.2 % ID/mL
[2]
  logD: -1.6 ± 0.03
Human albumin
  Protein-Bound Fraction (%): 89.5 ± 0.8%

From paper PMC9503898, “Synthesis and Evaluation of Two Long-Acting SSTR2 Antagonists for Radionuclide Therapy of Neuroendocrine Tumors” (Pharmaceuticals, 2022)
